In patent US8173689B2 (Novartis AG, priority 2006, dated 2012):
Where two headings read alike, the source gives them in different places.

Tests used:
[1] = system: MNFS60 (murine AML cells); experiment: Cell viability assay in MCSF dependent MNFS60 cells (Cell Titer Glo); assay type: cell-based; details: Mus musculus, tested at about 1 μM, read-out: M-NFS-60 CP percent inhibition
Description: Cell viability was assessed by Cell Titer Glo, Promega. […] Test compounds were serially diluted (3 fold) in DMSO to 500× the final concentration. […] Final concentration of MCSF is 10 ng/ml. Cells were incubated for 72 hrs at 37° C., 5% CO2. After the incubation 100 μl Cell Titer Glo is added to each well to determine viable cells. The assay was performed according to the manufacturer's instruction (Promega Corporation, Madison, Wis. USA). Each experimental condition was performed in triplicate. Raw data was imported in Abase and EC50s calculated with XL-fit data analysis software.

[2] = target: T1, kinase domain of PDGFRβ (Homo sapiens, UniProt P09619); experiment: Inhibition of PDGFRb kinase signaling in an in vitro biochemical assay (alphascreen); details: tested at about 1 μM, read-out: PDGFRβ percent inhibition
T1 construct: The kinase domain of PDGFRβ was assayed in 50 mM Hepes; purchased Invitrogen P3082

[3] = target: T2, kinase domain of cKIT (Homo sapiens, UniProt P10721); experiment: Inhibition of cKIT kinase signaling in an in vitro biochemical assay (alphascreen); details: tested at about 1 μM, read-out: cKit percent inhibition
T2 construct: The kinase domain of cKIT was assayed in 50 mM Hepes; purchased Upstate 14-559

[4] = target: T3, cytoplasmic domain of the human CSF-1R (Homo sapiens, UniProt P07333); experiment: In vitro kinase assay for colony stimulating factor-1 receptor (AlphaScreen); assay type: biochemical; details: tested at about 1 μM, read-out: CSF-1R percent inhibition
T3 construct: Recombinant protein corresponding to the cytoplasmic domain of the human CSF-1R; purchased Invitrogen Corporation, Carlsbad, Calif; PV3249
T3 sequence (P07333 539-972 limits assumed): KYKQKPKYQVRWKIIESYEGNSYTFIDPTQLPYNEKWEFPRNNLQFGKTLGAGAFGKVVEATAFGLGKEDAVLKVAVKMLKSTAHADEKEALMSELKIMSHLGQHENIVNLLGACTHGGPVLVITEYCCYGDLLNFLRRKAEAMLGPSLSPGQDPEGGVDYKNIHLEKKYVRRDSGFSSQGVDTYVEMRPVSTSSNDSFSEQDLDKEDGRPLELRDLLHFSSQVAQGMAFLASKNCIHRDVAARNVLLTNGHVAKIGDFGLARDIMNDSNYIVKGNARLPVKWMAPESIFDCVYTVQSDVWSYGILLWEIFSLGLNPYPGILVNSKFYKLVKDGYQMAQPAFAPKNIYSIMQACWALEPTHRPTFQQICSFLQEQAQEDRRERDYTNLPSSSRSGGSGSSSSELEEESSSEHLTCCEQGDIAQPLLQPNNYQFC
In short: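 Tyrosine phosphorylation of a peptide substrate by 4 nM recombinant cytoplasmic-domain enzyme is measured at 1 μM ATP in Mn2+/Mg2+-containing Hepes buffer, pH 7.5. Detection uses PT66 AlphaScreen beads after overnight incubation.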

T2 sequence (P10721 589-937 limits assumed): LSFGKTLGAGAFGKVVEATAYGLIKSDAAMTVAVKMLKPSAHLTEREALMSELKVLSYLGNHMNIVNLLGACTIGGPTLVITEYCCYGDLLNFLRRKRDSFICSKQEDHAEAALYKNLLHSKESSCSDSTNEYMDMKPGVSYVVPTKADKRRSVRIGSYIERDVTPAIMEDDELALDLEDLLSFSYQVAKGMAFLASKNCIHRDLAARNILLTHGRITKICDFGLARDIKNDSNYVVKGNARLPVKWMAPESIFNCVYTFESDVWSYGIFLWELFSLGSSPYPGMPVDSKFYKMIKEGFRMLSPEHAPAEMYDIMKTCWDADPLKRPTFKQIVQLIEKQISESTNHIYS
T1 sequence (P09619 600-962 limits assumed): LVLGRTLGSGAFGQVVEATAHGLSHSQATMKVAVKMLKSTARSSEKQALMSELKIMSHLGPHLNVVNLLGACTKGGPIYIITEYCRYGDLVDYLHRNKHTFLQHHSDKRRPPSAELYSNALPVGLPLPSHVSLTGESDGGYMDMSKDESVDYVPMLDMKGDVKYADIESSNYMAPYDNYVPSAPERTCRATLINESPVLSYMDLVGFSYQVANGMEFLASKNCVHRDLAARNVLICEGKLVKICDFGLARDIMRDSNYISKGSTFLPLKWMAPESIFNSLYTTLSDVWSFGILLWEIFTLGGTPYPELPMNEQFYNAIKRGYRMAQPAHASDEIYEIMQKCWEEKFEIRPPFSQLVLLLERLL

inhibition at 1 µM ([2]; compounds of Table 3) [%]	inhibition at 1 µM [2] [%]	inhibition at 1 µM ([3]; compounds of Table 3) [%]	inhibition at 1 µM ([4]; compounds of Table 3) [%]	inhibition at 1 µM [4] [%]	inhibition at 1 µM [3] [%]	SMILES	inhibition at 1 µM ([1]; compounds of Table 3) [%]	inhibition at 1 µM ([1]; MNFS60 cells) [%]
21	0	6	100	21		CNC(=O)c1cc(Oc2ccc3nc(NC4CCC4)oc3c2)ccn1 [Compound 22, 4-(2-Cyclobutylamino-benzooxazol-6-yloxy)-pyridine-2-carboxylic acid methylamide]	36	
	3			97	35	CNC(=O)c1cc(Oc2ccc3nc(NCc4ccncc4)oc3c2)ccn1 [Compound 57, 4-{2-[(Pyridin-4-ylmethyl)-amino]-benzooxazol-6-yloxy}-pyridine-2-carboxylic acid methylamide]		35
	85			98	48	CNC(=O)c1cc(Oc2ccc3nc(Nc4cccc(CCN5CCCCC5)c4)oc3c2)ccn1 [Compound 58, 4-{2-[3-(2-Piperidin-1-yl-ethyl)-phenylamino]-benzooxazol-6-yloxy}-pyridine-2-carboxylic acid methylamide]		30
	0			94	74	CNC(=O)c1cc(Oc2ccc3nc(NCCc4ccccc4)oc3c2)ccn1 [Compound 61, 4-(2-Phenylethylamino-benzo-oxazol-6-yloxy)-pyridine-2-carboxylic acid methylamide]		35
	3			99	6	CC(C)(C)OC(=O)NNC(=O)c1cc(Oc2ccc3nc(NCC4CCCCC4)oc3c2)ccn1 [Compound 68, N'-{4-[2-(Cyclohexylmethyl-amino)-benzooxazol-6-yloxy]-pyridine-2-carbonyl}-hydrazinecarboxylic acid tert-butyl ester]		18
	0			100	0	NC(=O)c1cc(Oc2ccc3nc(NCC4CCCCC4)oc3c2)ccn1 [Compound 69, 4-[2-(Cyclohexylmethyl-amino)-benzooxazol-6-yloxy]-pyridine-2-carboxylic acid amide]		0
	0			99	0	CNC(=O)c1cc(Oc2ccc3nc(NC4CC=CCC4)oc3c2)ccn1 (stereo not shown) [Compound 70, 4-[2-(Cyclohex-3-enylamino)-benzooxazol-6-yloxy]-pyridine-2-carboxylic acid methylamide]		0
	0			100	27	CNC(=O)c1cc(Oc2ccc3nc(NCc4ccc(F)cc4F)oc3c2)ccn1 [Compound 71, 4-[2-(2,4-Difluoro-benzylamino)-benzooxazol-6-yloxy]-pyridine-2-carboxylic acid methylamide]		11
	0			100	65	CNC(=O)c1cc(Oc2ccc3nc(NCc4ccccc4Br)oc3c2)ccn1 [Compound 72, 4-[2-(2-Bromo-benzylamino)-benzooxazol-6-yloxy]-pyridine-2-carboxylic acid methylamide]		48
	2			100	21	CNC(=O)c1cc(Oc2ccc3nc(NCc4cc(OC)ccc4F)oc3c2)ccn1 [Compound 73, 4-[2-(2-Fluoro-5-methoxy-benzylamino)-benzooxazol-6-yloxy]-pyridine-2-carboxylic acid methylamide]		0
	31			100	34	CNC(=O)c1cc(Oc2ccc3nc(Nc4cccc(CCN5CCOCC5)c4)oc3c2)ccn1 [Compound 74, 4-{2-[3-(2-Morpholin-4-yl-ethyl)-phenylamino]-benzo-oxazol-6-yloxy}-pyridine-2-carboxylic acid methylamide]		14
